According to BindingDB's records for doi:10.1016/j.bmc.2008.07.022 (Universidade Federal De Lavras-Ufla, 2008):

These compounds were tested against cGMP-specific 3',5'-cyclic phosphodiesterase (Homo sapiens, UniProt O76074) (assay: Inhibition of PDE5).

Point of comparison: `CCCCn1c(O)c2n(c1=O)[C@H](c1ccoc1)c1[nH]c3ccccc3c1C2` [(3aR,10R)-2-Butyl-10-furan-3-yl-3a,4,9,10-tetrahydro-2,9,10a-triaza-cyclopenta[b]fluorene-1,3-dione], IC50 100 nM. Against it:
- CCOc1ccc([C@H]2c3[nH]c4ccccc4c3Cc3c(O)n(Cc4cccnc4)c(=O)n32)cc1 — 5-fold lower, 20 nM
- CCOc1ccc([C@H]2c3[nH]c4ccccc4c3Cc3c(O)n(CCN(C)C)c(=O)n32)cc1 — 3.3-fold lower, 30 nM
- CCOc1ccc([C@H]2c3[nH]c4ccccc4c3Cc3c(O)[nH]c(=O)n32)cc1 — 5-fold lower, 20 nM
- CCOc1ccc([C@H]2c3[nH]c4ccccc4c3Cc3c(O)n(CCn4cccc4)c(=O)n32)cc1 — the same, 100 nM
- CCCCn1c(O)c2n(c1=O)[C@H](c1ccsc1)c1[nH]c3ccccc3c1C2 [Cis-2-Butyl-10-thiophen-3-yl-3a,4,9,10-tetrahydro-2,9,10a-triaza-cyclopenta[b]fluorene-1,3-dione] — 3.3-fold lower, 30 nM
